Here are results for 13 compounds from article PMC12257510, “Structure-Guided Design of a KMT9 Inhibitor Prodrug with Cellular Activity” (Journal of Medicinal Chemistry, 2025).

In general, Kd refers to the constant that tells how readily two partners part at equilibrium. A word on the ΔTm: it is the shift of the melting midpoint relative to a reference. What is called IC50 is the point on the concentration scale where inhibition reaches its midpoint. A low value points to higher potency.

Where two headings read alike, the source gives them in different places.

The target in test [1] is T1, KMT9 (Homo sapiens, UniProt Q9Y5N5).
T1 sequence (Q9Y5N5 1-214): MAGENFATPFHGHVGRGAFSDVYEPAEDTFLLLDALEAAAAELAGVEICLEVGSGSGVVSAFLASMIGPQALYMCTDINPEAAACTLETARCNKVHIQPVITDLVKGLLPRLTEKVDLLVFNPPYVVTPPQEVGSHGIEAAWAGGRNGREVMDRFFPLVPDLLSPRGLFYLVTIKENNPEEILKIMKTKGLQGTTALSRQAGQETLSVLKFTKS
T1 sequence (Q9UI30 1-125 partner): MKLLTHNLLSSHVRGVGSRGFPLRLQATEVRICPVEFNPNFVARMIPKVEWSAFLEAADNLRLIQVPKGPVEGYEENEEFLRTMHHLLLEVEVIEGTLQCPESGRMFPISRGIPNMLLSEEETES
The test can be described thus: Microscale thermophoresis (MST) binding assay. Here is the method:
To determine the binding affinity of the compound and KMT9, microscale thermophoresis (MST) analysis was performed with a NanoTemper Monolith NT.115 instrument (NanoTemper Technologies GmbH). KMT9 was labeled with a RED-Tris-NTA labeling kit (NanoTemper Technologies GmbH) based on the manufacturer’s instructions. Buffer including 25 mM HEPES (pH 7.5), 100 mM NaCl, 1 mM DTT and 0.05% Tween was used for the reaction buffer. Varying concentrations of compounds were titrated against His-tag labeled KMT9 proteins (20 nM). Samples were loaded into standard Capillaries (NanoTemper Technologies GmbH) and MST measurements were performed using 40% MST power and 100% LED power. For each set of binding experiments, MST measurement was carried out with Binding Affinity module in MO. Control program under Nano-RED excitation. Data sets were processed with the MO.Affinity Analysis software (NanoTemper Technologies GmbH).
(In general: MST reads how a fluorescent partner responds to local heating, with and without ligand.)

In test [2] the target is T1, KMT9. As to the kind of experiment: Thermal shift assay (SyproOrange). It counts as binding. As to conditions: read-out: ΔTm. Here is the method:
The assay was carried out in 96-well Hard-Shell PCR plates (Bio-Rad Laboratories Inc.). […] Final assay concentrations were set to 500 μM of compound 8, 2 μM KMT9 and 5× SO. One μL of 20× compound, 4 μL of assay buffer, 10 μL of 2× KMT9 and 5 μL of 4× SO were pipetted. For the no-compound control, 20× inhibitor stock was replaced by DMSO. The final volume was 20 μL. The plate was spun down at 700 rpm for 1 min using a Hettich UNIVERSAL 320 centrifuge and incubated at 25 °C, shaking at 600 rpm. After incubation, the plate was spun down for 1 min at 700 rpm and measurement was conducted using a CFX96 Touch Real-Time PCR Detection System (Bio-Rad Laboratories Inc.). The plate was equilibrated at 20 °C for 4 min and then heated stepwise at a rate of 1 °C per 15 s until 95 °C. After every step, fluorescence was measured in FRET mode. Calculation of melting points was conducted by a Boltzman sigmoidal model using GraphPad Prism 7.0.

The target in test [3] is T1, KMT9. The test can be described thus: KMT9 methyltransferase inhibition assay (3H-SAM, ETF1 substrate).
Description: The assay was carried out in 0.5 mL Eppendorf tubes in duplicates. Assay buffer consisted of 50 mM BTP, 1 mM MgCl2, 1 mM DTT and 0,01% Triton-X100 at a pH of 8.5 (adjusted using 1 M HCl and 1 M NaOH). 20X inhibitor stock (in DMSO), 2× enzyme stock and 4× substrate mix (both in assay buffer) were prepared. The substrate mix consisted of Tritium-labeled S-adenosylmethionine (3H-SAM), S-adenosylmethionine (SAM) and eukaryotic peptide chain release factor subunit1 (, residues 140–275) (ETF1). Final assay concentrations were set to 25 nM KMT9, 0.3 μM 3H-SAM, 0.7 μM SAM and 5 μM ETF1. […] Five μL of 4× substrate mix was added to initiate the reaction. The final reaction volume was 20 μL. For the positive control, the compound was replaced by DMSO; for the negative control, the compound was replaced by DMSO and KMT9 was replaced by assay buffer. The reaction mix was incubated in an Eppendorf thermomixer comfort at 30 °C for 2 h, shaking at 300 rpm. The reaction was quenched using 5 μL 50% trichloroacetic acid (TCA) and incubated at 25 °C for 5 min. Twenty-two μL of the mixture was transferred into 96-well MultiScreenHTS FB filter plates (Merck KGaA, Darmstadt, Germany) and washed four times with 10% TCA and two times with 100% ethanol. The plate was dried overnight, the filters were transferred into individual 6 mL Pony Vials (PerkinElmer Inc., Waltham, MA, USA) and incubated in 3 mL of Ultima Gold scintillation cocktail (PerkinElmer Inc., Waltham, MA, USA) for 30 min. The scintillation signal was measured for 3× 1 min using TriCarb 2910 TR (PerkinElmer) scintillation counter in 3H CPM mode (LL: 0, UL: 18.6).
Inhibition was calculated using the following formula: Inhibition[%]=(1−xc−xpos/xpos−xneg)×100
With xc: signal of compound, xpos: mean signal of positive control, xneg: mean signal of negative control. Data fitting was carried out by GraphPad 7.0 using nonlinear fit ([Inhibitor] vs response – variable slope (four parameters)).
Setting [4] is: MST, binding to KMT9, read-out: Kd.
The mark [5] stands for this setting: thermal shift, 2 μM KMT9, 500 μM compound.

For the compound `Nc1ncnc2c1ncn2[C@@H]1O[C@H](CSCC[C@H](N)C(=O)O)[C@@H](O)[C@H]1O` [SAH, S-adenosyl-L-homocysteine, reference compound], the Kd at KMT9 [1] (setting [4]) came to 10.9 µM.
Regarding `Nc1ncnc2c1ncn2[C@@H]1O[C@H](CN(CC[C@H](N)C(=O)O)CC[C@H](N)C(=O)O)[C@@H](O)[C@H]1O` [compound 1, (2S,2’S)-4,4’-((((2R,3S,4R,5R)-5-(6-Amino-9H-purin-9-yl)-3,4-dihydroxytetrahydrofuran-2-yl)methyl)azanediyl)bis(2-aminobutanoic Acid)], at KMT9 [1] (setting [4]), the Kd came to 6.8 µM.
As to `Nc1ncnc2c1ncn2[C@@H]1O[C@H](CN(CC[C@H](N)C(=O)O)CC[C@H](N)c2ccccc2)[C@@H](O)[C@H]1O` [compound 2a], the ΔTm at 500 µM at KMT9 [2] came out at 10.6 °C. The IC50 at KMT9 [3] came out at 3 µM. This compound showed a Kd on KMT9 [1] of 15 µM.
As for `CN(C)CCCN(CC[C@H](N)C(=O)O)C[C@H]1O[C@@H](n2cnc3c(N)ncnc32)[C@H](O)[C@@H]1O` [compound 3b, reference compound], the ΔTm at 500 µM on KMT9 [2] was 9.55 °C. Moreover, on KMT9 [3], 6 µM corresponded to half-maximal inhibition (IC50). For the same compound, the Kd on KMT9 [1] (setting [4]) came to 1 µM. The “Reduction of potency compared to compound 2d” value on KMT9 [1] (vs compound 2d) was about 100 fold.
As to `NCCCN(CCC(N)C(F)F)C[C@H]1O[C@@H](n2cnc3c(N)ncnc32)[C@H](O)[C@@H]1O` (stereo partly drawn) [compound 4b, (2R,3S,4R,5R)-2-(((3-Amino-4,4-difluorobutyl)(3-aminopropyl)amino)methyl)-5-(6-amino-9H-purin-9-yl)tetrahydrofuran-3,4-diol], the ΔTm at 500 µM on KMT9 [2] is 2.86 °C. The same compound showed an IC50 against KMT9 [3] of 200 µM. This compound displayed a Kd on KMT9 [1] of 100 µM.
Consider `NCCCN(CCC(N)C(F)(F)F)C[C@H]1O[C@@H](n2cnc3c(N)ncnc32)[C@H](O)[C@@H]1O` (stereo partly drawn) [compound 4c, (2R,3S,4R,5R)-2-(((3-Amino-4,4,4-trifluorobutyl)(3-aminopropyl)amino)methyl)-5-(6-amino-9H-purin-9-yl)tetrahydrofuran-3,4-diol], for which, on KMT9 [2] (setting [5]), the ΔTm at 500 µM worked out at 3.43 °C. The compound further had an IC50 against KMT9 [3] of 500 µM. Besides, the Kd at KMT9 [1] (setting [4]) was over 500 µM.
As for `C[C@@H](CN(CCCN)C[C@H]1O[C@@H](n2cnc3c(N)ncnc32)[C@H](O)[C@@H]1O)N1CCC(O)CC1` [compound 4e, (2R,3R,4S,5R)-2-(6-Amino-9H-purin-9-yl)-5-(((3-aminopropyl)((s)-2-(4-hydroxypiperidin-1-yl)propyl)amino)methyl)tetrahydrofuran-3,4-diol], at KMT9 [2], the ΔTm at 500 µM was found to be 2.78 °C. Moreover, on KMT9 [3], the IC50 is over 500 µM. In addition, the Kd at KMT9 [1] (setting [4]) came to 50 µM.
On to `NCCCN(C[C@H]1C=CCN1)C[C@H]1O[C@@H](n2cnc3c(N)ncnc32)[C@H](O)[C@@H]1O` [compound 4f, (2R,3R,4S,5R)-2-(6-Amino-9H-purin-9-yl)-5-(((3-aminopropyl)(((R)-2,5-dihydro-1H-pyrrol-2-yl)methyl)amino)methyl)tetrahydrofuran-3,4-diol], for which the ΔTm at 500 µM on KMT9 [2] was -0.52 °C. Moreover, the IC50 at KMT9 [3] was 253 µM. The same compound registered a Kd at KMT9 [1] of over 500 µM.
`Nc1ncnc2c1ncn2[C@@H]1O[C@H](CN(CCCNCc2ccccc2)CC[C@H](N)C(=O)O)[C@@H](O)[C@H]1O` [compound 5a, (S)-2-Amino-4-((((2R,3S,4R,5R)-5-(6-amino-9H-purin-9-yl)-3,4-dihydroxytetrahydrofuran-2-yl)methyl)(3-(benzylamino)propyl)amino)butanoic acid]: the ΔTm at 500 µM at KMT9 [2] came to 19.6 °C. Further, the IC50 against KMT9 [3] came out at 0.1 µM. Moreover, binding at KMT9 [1] was put at a Kd of 0.04 µM.
Consider `Nc1ncnc2c1ncn2[C@@H]1O[C@H](CN(CCCNCCc2ccccc2)CC[C@H](N)C(=O)O)[C@@H](O)[C@H]1O` [compound 5b, (S)-2-Amino-4-((((2R,3S,4R,5R)-5-(6-amino-9H-purin-9-yl)-3,4-dihydroxytetrahydrofuran-2-Yyl)methyl)(3-(phenethylamino)propyl)amino)butanoic acid], for which the ΔTm at 500 µM at KMT9 [2] is 20.9 °C. The compound further registered an IC50 against KMT9 [3] of 0.034 µM. The compound further came in with a Kd on KMT9 [1] of 0.01 µM.
The like results for `Nc1ncnc2c1ncn2[C@@H]1O[C@H](CN(CCCNCCCc2ccccc2)CC[C@H](N)C(=O)O)[C@@H](O)[C@H]1O` [compound 5c, (S)-2-Amino-4-((((2R,3S,4R,5R)-5-(6-amino-9H-purin-9-yl)-3,4-dihydroxytetrahydro-furan-2-yl)methyl)(3-((3-phenylpropyl)amino)propyl)amino)butanoic acid] were, in that order, 21.3 °C, 0.064 µM and 0.02 µM.
`CNc1ncnc2c1ccn2[C@@H]1C[C@H](CN(CCCNCCc2ccc(Oc3ccccc3)cc2)CC[C@H](N)C(=O)O)[C@@H](O)[C@H]1O` [compound 7a, (S)-2-Amino-4-((((1R,2R,3S,4R)-2,3-dihydroxy-4-(4-(methylamino)-7H-pyrrolo[2,3-d]pyrimidin-7-yl)cyclopentyl)methyl)(3-((4-phenoxyphenethyl)amino)propyl)amino) Butanoic acid]: at KMT9 [2] (setting [5]), the ΔTm at 500 µM stood at 17.5 °C. The same compound returned an IC50 against KMT9 [3] of 0.6 µM. For the same compound, the Kd on KMT9 [1] (setting [4]) came out at 0.07 µM.
`CNc1ncnc2c1ccn2C1CC(CN(CCCOCCc2ccc(Oc3ccc(Cl)cc3)c(F)c2)CCC(N)C(=O)O)C(O)C1O` [compound 7b-N, (S)-2-Amino-4-((3-(4-(4-chlorophenoxy)-3-fluorophenethoxy)propyl)(((1R,2R,3S,4R)-2,3-dihydroxy-4-(4-(methylamino)-7H-pyrrolo[2,3-d]pyrimidin-7-yl)cyclopentyl)methyl)amino)butanoic Acid]: on KMT9 [1] (Kd ratio vs compound 7b), the “Decrease of binding affinity compared to compound 7b” value is “more than 1000 fold”. Also, at KMT9 [1] (setting [4]), the Kd is about 56 µM.
